Test results taken from US20180296630A1, “METHODS AND COMPOSITIONS FOR PREVENTING OR TREATING OPHTHALMIC CONDITIONS” (Stealth BioTherapeutics Corp, priority 2012, published 2018).

Key:
[1] = test system: GTM and HTM cells; test: Cell apoptosis induced by H2O2 (percentage of cells in Q2+Q4); format: cell-based, human; details: FIG. 38
From the text: FIG. 38A-38D are graphs showing cell apoptosis of control and D-Arg-2′,6′-Dmt-Lys-Phe-NH2(SS-31)-treated groups valued by percentage of cells in the Q2+Q4 quadrant.
The percentage of intracellular ROS production compared to GTM control in GTM H2O2, D-Arg-2′,6′-Dmt-Lys-Phe-NH2 10^−6M, D-Arg-2′,6′-Dmt-Lys-Phe-NH2 10^−7M, D-Arg-2′,6′-Dmt-Lys-Phe-NH2 10^−8M groups were 146.0±2.27%, 84.5±8.75%, 102.0±5.69%, 133.0±5.17% respectively (n=3); the HTM groups were 153.0±3.46%, 79±2.39%, 91.8±3.49%, 129.0±8.24% respectively (n=4). P<0.001 GTM and HTM H2O2 Group compared to control; *** means P<0.001 compared to GTM H2O2 group; ▴ ▴ ▴ Means P<0.001 compared to HTM H2O2 group; ▴ ▴ means P<0.01 compared to HTM H2O2 group.

[2] = test system: HTM cells; test: TMRM fluorescence (mitochondrial membrane potential), acute H2O2 injury, FACS, HTM cells; format: cell-based, human; details: n=4
From the text: (§1) Methods to measure mitochondrial membrane potential using TMRM useful in the studies of the present invention have been described by Andrea Rasola and Massimo Geuna, A flow cytometry assay simultaneously detects independent apoptotic parameters, Cytometry 45:151-157, 2001; Mitoprobe™ JC-1 Kit for Flow Cytometry, Molecular Probes, Invitrogen, USA.
(§2) The mitochondrial membrane potential (Δψm) of HTM and GTM cells was investigated when those cells were exposed to hydrogen peroxide prior to administration of D-Arg-2′,6′-Dmt-Lys-Phe-NH2. First, the mitochondrial membrane potential was measured using confocal microscopy of cells labeled with tetramethylrhodamine methyl ester (TMRM, 500 nM×30 min) (FIG. 15). The mitochondrial membrane potential was also measured using flow cytometry (FIGS. 16-17) by labeling cells with the mitochondrion-selective probe tetramethylrhodamine methyl ester (TMRM, 500 nM×30 min).
(§3) The effects of D-Arg-2′,6′-Dmt-Lys-Phe-NH2 at mitigating acute oxidative injury in GTM and HTM cells was investigated. […] The percentage of fluorescence intensity compared to GTM control in H2O2, D-Arg-2′,6′-Dmt-Lys-Phe-NH2 10^−6M, D-Arg-2′,6′-Dmt-Lys-Phe-NH2 10^−7M, D-Arg-2′,6′-Dmt-Lys-Phe-NH2 10^−8M were 35.2±2.12%, 56.2±4.04%, 50.3±4.46%, 47.5±2.82% respectively, n=4; the HTM groups were 37.4±0.725%, 57.7±1.80%, 50.6±3.06%, 49.4±2.27% respectively, n=4. ** means P<0.01 compared to GTM H2O2 group; * means P<0.05 compared to GTM H2O2 group; ▴ ▴ ▴ means P<0.001 compared to HTM H2O2 group.

[3] = test system: STZ and HFD/STZ diabetic rats; test: Retinal microvessel changes in diabetic SD rats; format: in vivo, Sprague-Dawley rat; details: STZ or HFD/STZ rats
Procedure: (§4) A rat model of diabetes was established by combination of 6-week HFD and low dose of STZ (30 mg/kg) injection or a single high dose of STZ (65 mg/kg) in SD rats. See generally, K. Srinivasan, B. Viswanad, Lydia Asrat, C. L. Kaul and P. Ramarao, Combination of high-fat diet-fed and low-dose streptozotocin-treated rat: A model for type 2 diabetes and pharmacological screening, Pharmacological Research, 52(4): 313-320, 2005. Rats of the same batch fed with normal chow (NRC) were used as a control.
The effect of the aromatic-cationic peptides on retinal microvessels in the SD rat model was investigated (FIGS. 11-12). Administration of D-Arg-2′,6′-Dmt-Lys-Phe-NH2 reduced retinal microvasular changes observed in STZ or HFD/STZ rats.

[4] = test system: STZ diabetic rats with intraocular ischemia/reperfusion; test: Efficacy Pharmacological Test 1: diabetic rats, intraocular ischemia/reperfusion, visual cell layer edema
[5] = test system: STZ diabetic rats; test: Lens opacity (cataract) in STZ rat model; format: in vivo, Sprague-Dawley rat; details: 10 mg (Table 11: 10 mg/kg s.c.)
Procedure: as §4

[6] = test system: GTM cells; test: TMRM fluorescence (mitochondrial membrane potential), acute H2O2 injury, FACS, GTM cells; format: cell-based, human; details: n=4
From the text: as §1, §2, §3

[7] = test system: primary human retinal pigment epithelial (RPE) cells; test: Viability of primary RPE cells exposed to tBHP (MTT); format: cell-based; details: preincubated 4 h with different concentrations, then tBHP 6 h
Procedure: Next, the viability of primary RPE cells was tested in the presence of tBHP and various concentrations of D-Arg-2′,6′-Dmt-Lys-Phe-NH2. Cells were plated at 10,000 cells per well in a 96-well plate and cultured for 24 h, then starved for 24 h. After that, cells were exposed to increasing concentrations of tBHP (FIG. 23A), or preincubated for 4 h with different concentrations of D-Arg-2′,6′-Dmt-Lys-Phe-NH2, then stimulated with tBHP for 6 h (FIG. 23B). […] Intracellular ROS production in three groups of RPE cells was also examined using FACS analysis. […] Three different concentration of D-Arg-2′,6′-Dmt-Lys-Phe-NH2 groups were analyzed. The ratio of red to green in 500 μM tBHP for the 3 h group is 1.08, the ratio of red to green in 10 nM D-Arg-2′,6′-Dmt-Lys-Phe-NH2 for 4 h+500 tBHP for 3 h group is 1.25; the ratio of red to green in 100 nM D-Arg-2′,6′-Dmt-Lys-Phe-NH2 for 4 hr+500 μM tBHP for 3 h group is 1.4; and the ratio of red to green in 1 μM D-Arg-2′,6′-Dmt-Lys-Phe-NH2 for 4 h+500 μM tBHP for 3 h group is […]. […] FIG. 33A: Control group, R/G is 3.63±0.24; FIG. 33B: 500 μM tBHP for 3 h group, R/G is 1.08±0.11; FIG. 33C: 1 μM D-Arg-2′,6′-Dmt-Lys-Phe-NH2 for 4 h+500 μM tBHP for 3 h group, R/G is 2.38±0.18. FIG. 33D is a chart comparing the fluorescence ratio for the different groups. *P<0.01, C vs. B.

Substance: D-Arg-2′,6′-Dmt-Lys-Phe-NH2
- amount of cell apoptosis induced by H2O2 [1]: reduced
- percentage of TMRM fluorescence intensity compared to control ([2]; 10^−6M): 57.7±1.80%
- percentage of TMRM fluorescence intensity compared to control ([2]; 10^−7M): 50.6±3.06%
- percentage of TMRM fluorescence intensity compared to control ([2]; 10^−8M): 49.4±2.27%
- retinal microvascular changes [3]: reduced
- loss of nuclei in the inner retinal layer ([4]; compared to the diabetic control group): absent, or much diminished
- edema of the visual cell layer after ischemia/reperfusion ([4]; diabetic groups, oral, parenteral or eye drops twice per day): no edema or very low levels of edema
- Opacity degree ++++, number in group [5]: 1
- Opacity degree +++, number in group [5]: 0
- Opacity degree ++, number in group [5]: 0
- Opacity degree +, number in group [5]: 2
- Opacity degree −, number in group [5]: 2
- Percentage of opacity [5]: 60.0%
- Percentage of severe opacity [5]: 20.0%
- percentage of TMRM fluorescence intensity compared to GTM control ([6]; 10^−6M): 56.2±4.04%
- percentage of TMRM fluorescence intensity compared to GTM control ([6]; 10^−7M): 50.3±4.46%
- percentage of TMRM fluorescence intensity compared to GTM control ([6]; 10^−8M): 47.5±2.82%
- cell viability in response to tBHP [7]: enhanced
